Test results from patent US10441627B2, “Method of treating prader-willi syndrome” (Ferring B.V., priority 2014, dated 2019).

Key:
[1] = system: human oxytocin (hOT) receptor vs human V2 (hV2) receptor; conditions: ratio of EC50 values; from Table 2 in WO2009/122285; cited from earlier work
[2] = system: subjects with Prader-Willi Syndrome (PWS); test: Double-blind, placebo-controlled clinical trial of carbetocin intranasal spray in subjects with PWS; format: in vivo, human; conditions: for Clinical Global Impression, Least-Squares Mean Change Carbetocin vs. Placebo: CGI-I 7-point clinician rating; for HPWSQ-R-C Behavior domain score, Least-Squares Mean Change Carbetocin vs. Placebo / HPWSQ-R-C Drive domain score, Least-Squares Mean Change Carbetocin vs. Placebo / HPWSQ-R-C Severity domain score, Least-Squares Mean Change Carbetocin vs. Placebo / HPWSQ-R-C total score, Least-Squares Mean Change Carbetocin vs. Placebo: clinician rated; for HPWSQ-R total score, Least-Squares Mean Change Carbetocin vs. Placebo / HPWSQ-R Behavior domain score, Least-Squares Mean Change Carbetocin vs. Placebo / HPWSQ-R Drive domain score, Least-Squares Mean Change Carbetocin vs. Placebo / HPWSQ-R Severity domain score, Least-Squares Mean Change Carbetocin vs. Placebo: parent/caregiver rated; for HPWSQ-R total score, Least-Squares Mean Change Carbetocin vs. Placebo: negative = improvement vs placebo
Procedure: A prospective, double-blind, placebo-controlled, parallel trial in subjects with PWS between 10 and 18 years of age with genetically confirmed diagnosis of PWS and a documented nutritional Phase 3 based on the criteria described in Miller et al, 2011 (Am J Med Genet A, 155A(5):1040-1049) was performed. The trial included a Screening Period, a 14-day Treatment Period, and a Follow-Up Period. Subjects, along with their parent/caregiver, were required to visit the investigational site 4 times over the course of the trial and participate in 2 phone call assessments. The trial schedule is listed below. • Visit 1: Screening Period (Day −7 to Day 0) • Visit 2: Baseline 1st day dosing on site (Day 1) • Visit 3: 2nd day dosing on site (Day 2) • Phone call assessment (Day 8±1) • Visit 4: End-of-Treatment Visit (Day 15) • Follow-up phone call (Day 19±3)
Following appropriate informed consent procedures, subjects underwent screening evaluations to determine eligibility before randomization. After randomization, efficacy measures and other assessments, including physical examination, vital signs, and collection of blood samples for clinical laboratory and pharmacokinetic evaluation, were performed at selected visits. Subjects were closely monitored for adverse events throughout the trial.
Prior to first dosing at the investigational site, parents/caregivers were trained on the proper use of the nasal spray device and procedures for investigational medicinal product (IMP) home delivery. Parents/caregivers were instructed to administer 3 intranasal spray pumps of blinded IMP per nostril 3 times daily before meals within the following intervals:
38 subjects, 10-18 years of age, with genetically confirmed diagnosis of PWS and documented nutritional phase 3 PWS criteria (based on Miller et al, 2011), were randomized. 36 subjects completed the study.
The carbetocin intranasal spray was prepared by dissolving […] in 0.9% sterile sodium chloride solution. Specifically, the preweighed carbetocin powder was reconstituted with the sodium chloride solution and subsequently transferred to a nasal spray device. Each spray pump actuation delivered a 50 μL volume of solution containing 1.6 mg carbetocin. Each dose consisted of 3 spray pump actuations in each nostril to deliver a total of 9.6 mg carbetocin. The daily dose of carbetocin was 28.8 mg.
The primary endpoint measured in this trial was change in the total score from Visit 2 to Visit 4 in Hyperphagia in Prader-Willi Syndrome Questionnaire-Responsiveness (HPWSQ-R), which was completed by the parent/caregiver.
1. Clinical Global Impression-Improvement (CGI-I) after treatment at Visit 4.
2. Change from Visit 2 to Visit 4 for the following measurements: • HPWSQ-R hyperphagia behavior, drive, and severity domain scores. • Hyperphagia in Prader-Willi Syndrome Questionnaire-Responsiveness—completed by the clinician (HPWSQ-R-C) total score. • HPWSQ-R-C hyperphagia behavior, drive, and severity domain scores.
3. Change from Visit 1 to Visit 4 for the following measurements: • Children's Yale-Brown Obsessive Compulsive Scale (CY-BOCS) score. • Food Domain of the Reiss Profile.
The primary endpoint was analyzed using an analysis of covariance model with treatment and site as fixed effects and HPWSQ-R total score at Visit 2 (baseline) as a covariate. The last observation carried forward method was used to carry forward non-missing values of HPWSQ-R total score during the phone call assessment (Day 8±1) to impute missing values of HPWSQ-R total score at Visit 4. The treatment group difference in total score between placebo and carbetocin was calculated by subtracting the mean change from baseline in placebo from that in the carbetocin group. A borderline statistically significant difference at the 10% significant level was achieved if the upper limit of the 90% 1-sided confidence interval for the treatment difference was less than zero. […]

CC[C@H](C)[C@@H]1NC(=O)[C@H](Cc2ccc(O)cc2)NC(=O)[C@@H](N)CSSC[C@@H](C(=O)N2CCC[C@H]2C(=O)N[C@@H](CC(C)C)C(=O)NCC(N)=O)NC(=O)[C@H](CC(N)=O)NC(=O)[C@H](CCC(N)=O)NC1=O [Oxytocin]
hV2/hOT selectivity ratio (EC50 hV2/EC50 hOT) [1]: 3

carbetocin
Clinical Global Impression, Least-Squares Mean Change Carbetocin vs. Placebo ([2]; Day 8, intranasal 28.8 mg/day): −0.9/0.0162 | HPWSQ-R-C Behavior domain score, Least-Squares Mean Change Carbetocin vs. Placebo ([2]; Day 8, intranasal 28.8 mg/day): −5.4/0.0017 | HPWSQ-R-C Drive domain score, Least-Squares Mean Change Carbetocin vs. Placebo ([2]; Day 8, intranasal 28.8 mg/day): −3.4/0.0019 | HPWSQ-R-C Severity domain score, Least-Squares Mean Change Carbetocin vs. Placebo ([2]; Day 8, intranasal 28.8 mg/day): −1.7/0.0061 | HPWSQ-R-C total score, Least-Squares Mean Change Carbetocin vs. Placebo ([2]; Day 8, intranasal 28.8 mg/day): −10.2/0.0017 | CY-BOCS, Least-Squares Mean Change Carbetocin vs. Placebo ([2]; Day 8, intranasal 28.8 mg/day): −2.7/0.0956 | Food Domain Score of Reiss Profile, Least-Squares Mean Change Carbetocin vs. Placebo ([2]; Day 8, intranasal 28.8 mg/day): −3.0/0.0184 | HPWSQ-R total score, Least-Squares Mean Change Carbetocin vs. Placebo ([2]; Day 8, intranasal 9.6 mg three times daily (28.8 mg/day)): −5.2/0.0632 | HPWSQ-R Behavior domain score, Least-Squares Mean Change Carbetocin vs. Placebo ([2]; Day 8, intranasal 28.8 mg/day): −1.9/0.1153 | HPWSQ-R Drive domain score, Least-Squares Mean Change Carbetocin vs. Placebo ([2]; Day 8, intranasal 28.8 mg/day): −2.1/0.0625 | HPWSQ-R Severity domain score, Least-Squares Mean Change Carbetocin vs. Placebo ([2]; Day 8, intranasal 28.8 mg/day): −1.1/0.0572 | Clinical Global Impression, Least-Squares Mean Change Carbetocin vs. Placebo ([2]; Day 15, intranasal 28.8 mg/day): −0.8/0.0233 | HPWSQ-R-C Behavior domain score, Least-Squares Mean Change Carbetocin vs. Placebo ([2]; Day 15, intranasal 28.8 mg/day): −4.3/0.0068 | HPWSQ-R-C Drive domain score, Least-Squares Mean Change Carbetocin vs. Placebo ([2]; Day 15, intranasal 28.8 mg/day): −2.6/0.0340 | HPWSQ-R-C Severity domain score, Least-Squares Mean Change Carbetocin vs. Placebo ([2]; Day 15, intranasal 28.8 mg/day): −2.2/0.0014 | HPWSQ-R-C total score, Least-Squares Mean Change Carbetocin vs. Placebo ([2]; Day 15, intranasal 28.8 mg/day): −10.5/0.0014 | CY-BOCS, Least-Squares Mean Change Carbetocin vs. Placebo ([2]; Day 15, intranasal 28.8 mg/day): −6.2/0.0047 | Food Domain Score of Reiss Profile, Least-Squares Mean Change Carbetocin vs. Placebo ([2]; Day 15, intranasal 28.8 mg/day): −4.4/0.0132 | HPWSQ-R Behavior domain score, Least-Squares Mean Change Carbetocin vs. Placebo ([2]; Day 15, intranasal 28.8 mg/day): −2.0/0.1172 | HPWSQ-R Drive domain score, Least-Squares Mean Change Carbetocin vs. Placebo ([2]; Day 15, intranasal 28.8 mg/day): −1.6/0.1436 | HPWSQ-R Severity domain score, Least-Squares Mean Change Carbetocin vs. Placebo ([2]; Day 15, intranasal 28.8 mg/day): −1.5/0.0248 | HPWSQ-R total score, Least-Squares Mean Change Carbetocin vs. Placebo ([2]; Day 15, intranasal 28.8 mg/day): −6.7/0.0290 | Improvement over placebo treated patients in HPWSQ-R, HPWSQ-R-C, CGI, CY-BOCS and Food Domain Score of Reiss Profile ([2]; Day 15 results, P<0.05): statistically significant improvement | hV2/hOT selectivity ratio (EC50 hV2/EC50 hOT) [1]: 244
